The term logP denotes a log measure of how a compound divides between an organic and an aqueous phase.

The text below walks through data of patent US9688712B2, “Manufacturing method for polyphenol composition” (KAO CORPORATION, priority 2010, dated 2017).

Like-named read-outs stand apart in the source and are kept apart here.

The conditions of series [1]: cited from earlier work.
A short description of series [2]: Measurement of log P value of the hardly water-soluble polyphenols (flask shaking method, JIS Z7260-107). The protocol:
The log P value is a common logarithm of the partition coefficient between 1-octanol, and water and an index indicative of a hydrophobicity of an organic compound. Larger positive log P value indicates larger hydrophobicity. […] The details are described in Examples.
[Measurement of Log P Value of the Hardly Water-Soluble Polyphenols]
First, 1-octanol and distilled water were shaken for 24 hours at 25° C. to equilibrate them. Then, 10 mg of polyphenol was weighed into a glass vial with a cap, into which each of 4 mL of the equilibrated 1-octanol and water was added. The vial was shaken for 4 days at 25° C. […] Log P value is a common logarithm of the partition coefficient between the two phases.

Consider `COc1ccc([C@@H]2CC(=O)c3c(O)cc(O[C@@H]4O[C@H](CO[C@@H]5O[C@@H](C)[C@H](O)[C@@H](O)[C@H]5O)[C@@H](O)[C@H](O)[C@H]4O)cc3O2)cc1O` [Hesperidin, hesperidin], for which the “solubility in water at 25° C.” value in series [1] is listed as 0.02 mg/g.

The compound `COc1cc(/C=C/C(=O)CC(=O)/C=C/c2ccc(O)c(OC)c2)ccc1O` [curcumin] yielded a logP at 4 days in series [2] of 3.29.

`Oc1ccc(C=Cc2cc(O)cc(O)c2)cc1` [resveratrol] registered a logP at 4 days in series [2] (1-octanol/water) of 3.08.
